From the NIST ThermoML archive (doi:10.1007/s10765-012-1371-1)

Test: xn = mol fraction of the nth substance listed
Details: 101 kPa, Liquid

CCC(C)Cl (centres undefined) [2-chlorobutane] + COC(C)(C)C
viscosity [mPa·s]
Details | 283.15 K | 288.15 K | 293.15 K | 298.15 K | 303.15 K | 308.15 K | 313.15 K
x1 = 0.0434 | 0.3916 | 0.3664 | 0.3507 | 0.3353 | 0.3177 | 0.3019 | 0.287
x1 = 0.0928 | 0.3949 | 0.3694 | 0.3536 | 0.3383 | 0.3207 | 0.3048 | 0.2897
x1 = 0.1824 | 0.4008 | 0.3752 | 0.3591 | 0.3436 | 0.3261 | 0.3099 | 0.2948
x1 = 0.2774 | 0.4072 | 0.3816 | 0.365 | 0.3495 | 0.3319 | 0.3155 | 0.3002
x1 = 0.3786 | 0.4141 | 0.3883 | 0.3715 | 0.3558 | 0.338 | 0.3215 | 0.306
x1 = 0.4751 | 0.4208 | 0.3951 | 0.3779 | 0.3619 | 0.3441 | 0.3273 | 0.3117
x1 = 0.584 | 0.4287 | 0.4029 | 0.3853 | 0.3691 | 0.351 | 0.334 | 0.3182
x1 = 0.6819 | 0.436 | 0.4101 | 0.3921 | 0.3757 | 0.3575 | 0.3401 | 0.3241
x1 = 0.8032 | 0.4456 | 0.4195 | 0.4009 | 0.3843 | 0.3657 | 0.3481 | 0.3317
x1 = 0.9015 | 0.4536 | 0.4274 | 0.4084 | 0.3915 | 0.3727 | 0.3547 | 0.3379
x1 = 0.9512 | 0.458 | 0.4318 | 0.4125 | 0.3954 | 0.3764 | 0.3581 | 0.3411
x1 = 1 | 0.4631 | 0.4365 | 0.4167 | 0.3993 | 0.38 | 0.3615 | 0.3443
